Assay type in all cases: physicochemical
The nature of data set [1]: Dissolution test of torasemide in water (USP 23). The note with it: for % Dissolved torasemide: water, USP 23, 37° C., 50 rpm., 1000 ml. The procedure:
(§1) The microcrystallinic modifications I, II and III of torasemide prepared according to Acta Crst. B34 (1978), 1304-1310 and Example 1 were subjected to dissolution testing in water, and in artificial intestinal juice, at 37° C.

Data set [2] can be described thus: Stability of the crystal modification on storage and at increased humidity.
Data set [3] in a line: Intrinsic Dissolution Rate in a model of artificial gastric juice.
Data set [4] in a line: Dissolution test in artificial intestinal juice (USP 23). On the procedure: as §1

The text below walks through data of patent publication US6399637B1, “Crystal modification of torasemide” (PLIVA, farmaceutska, kemijska, prehrambena i kozmeticka …, priority 1998, dated 2002).

SMILES strings stand for the structures.

On to `Cc1cccc(Nc2ccncc2S(=O)(=O)NC(=O)NC(C)C)c1` [Mod. I, N-(1-methylethylaminocarbonyl)-4-(3-methyl-phenylamino)-3-pyridinesulfonamide], for which the “% Dissolved torasemide” value stood at 0% in data set [1] (0 minutes); 6.7% in data set [1] (10 minutes); 13.0% in data set [1] (20 minutes); 18.5% in data set [1] (30 minutes); 23.5% in data set [1] (40 minutes); 28.5% in data set [1] (50 minutes). In addition, the “% Dissolved torasemide” value in data set [1] (60 minutes) stood at 32.8%.
On to `Cc1cccc(Nc2ccncc2S(=O)(=O)NC(=O)NC(C)C)c1` [Mod. II, N-(1-methylethylaminocarbonyl)-4-(3-methyl-phenylamino)-3-pyridinesulfonamide], for which the “% Dissolved torasemide” value in data set [1] (0 minutes) is 0%; in data set [1] (10 minutes), 15.1%; in data set [1] (20 minutes), 27.8%; in data set [1] (30 minutes) it was 39.2%; in data set [1] (40 minutes), 48.8%; in data set [1] (50 minutes) it was 56.3%. Besides, in data set [1] (60 minutes), the “% Dissolved torasemide” value came out at 65.1%.
With `Cc1cccc(Nc2ccncc2S(=O)(=O)NC(=O)NC(C)C)c1` [Mod. III, N-(1-methylethylaminocarbonyl)-4-(3-methyl-phenylamino)-3-pyridinesulfonamide], the “stability of the crystal modification (no transformation into modification I or II)” value in data set [2] (normal storage conditions) and in data set [2] (subjected to increased humidity) was “stable” throughout. For the same compound, the “dissolution profile (USP 23) in comparison to known crystal modifications I and II” value in data set [1] (in water) and in data set [4] was “significant difference” throughout. The “% Dissolved torasemide” value in data set [1] (0 minutes) was determined as 0%; in data set [1] (10 minutes), 15.6%; in data set [1] (20 minutes), 28.1%; in data set [1] (30 minutes), 37.7%; in data set [1] (40 minutes) it was 43.6%; in data set [1] (50 minutes) it was 48.5%. Further, the “% Dissolved torasemide” value in data set [1] (60 minutes) came out at 51.1%. Also, in data set [3], the “IDR (Intrinsic Dissolution Rate)” value was “exceeds 1 mg cm^−2min^−1”.
